Among the data in ChEMBL document CHEMBL3045926, “Exacerbative role of vitamn A on radiation damage in vivo” (2008) are Activity values, retold here.

Holding throughout (format): functional
For test [1], the system named is Cavia porcellus. Description: Antioxidant activity against gamma irradiation-induced ROS production in Cavia porcellus (guinea pig) liver assessed as glutathione peroxidase level per mg protein at 50 U/Kg, ip administered 2 days prior to irradiation-challenge measured after 30 min by spectroscopic analysis (reference value: 0.76 +/- 0.06 U per mg protein).
For test [2], the system named is Cavia porcellus. Description: Antioxidant activity against gamma irradiation-induced ROS production in Cavia porcellus (guinea pig) liver assessed as thiobarbituric acid reactive substance level per g tissue at 50 U/Kg, ip administered 2 days prior to irradiation-challenge measured after 30 min by spectroscopic analysis (reference value: 168.75 +/- 12.54 nmol per g tissue).

Test [3] relates to Cavia porcellus. Description: Antioxidant activity against gamma irradiation-induced ROS production in Cavia porcellus (guinea pig) liver assessed as nitric oxide level at 50 U/Kg, ip administered 2 days prior to irradiation-challenge measured after 30 min by ESR spectroscopic analysis (reference value: 0.3 +/- 0.08 a.u).
For test [4], the system named is Cavia porcellus. Description: Antioxidant activity against gamma irradiation-induced ROS production in Cavia porcellus (guinea pig) liver assessed as superoxide dismutase level per mg protein at 50 U/Kg, ip administered 2 days prior to irradiation-challenge measured after 30 min by spectroscopic analysis (reference value: 8.72 +/- 1.94 U per mg protein).

Molecules are shown by their SMILES.

For `CC1=C(/C=C/C(C)=C/C=C/C(C)=C/CO)C(C)(C)CCC1` [RETINOL], the Activity came out at 0.39 U/mg in test [1], 197 nmol/g in test [2], 1.04 a.u in test [3] and 6.66 U/mg in test [4].
